Results on 77 sequences are retold here after the supplement of paper PMC11208160.

A short description of the data set: recombinant barcode read abundance after kanamycin selection (control-corrected) (log10(CPM+1)); higher = more efficient recombination; sequences stand for … in AGTGCAGAGAAAATCGGCCAGTTTTCTCTGCCTGCAGTCCGCATGCCGT…AGATTTATGCAGCGGACTGCCTTTCTCCCAAAGTGATAAACCGGACAGTATCATGGACCGGTTTTCCCGGTAATCCGTATTTGCAAGGTTGGTTTCACT; site = the 11-nt target. Summed up:
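Targets were screened in pooled form in E. coli against IS621 bridge RNA target-binding loops. Recombination efficiency is based on barcode counts at recombinant junctions in counts per million, averaged and corrected for the control. Numbers are shown as log10(CPM+1), with duplicate plates on chloramphenicol/ampicillin LB agar (control) or chloramphenicol/ampicillin/kanamycin with 0.1 mM IPTG.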
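Note: IS621 recombinase and bridge RNA in Escherichia coli cells.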

For “ATGCTTGCTTGGGTTCTAACCTGTTGCCA (site TGTGCAACTCA)”, the “recombinant barcode read abundance (log10)” value worked out at 0.299. Take “ATGGATACTTGGGTTCTAACCTGTTGCCT (site ATGGATACTAG)”: the “recombinant barcode read abundance (log10)” value is 2.26. Turning to “ATGGATACTTGGGTTCTAACCTGTTGCCT (site ATGTACACTAG)”, the “recombinant barcode read abundance (log10)” value worked out at 0.22. As to “ATGGATCCTTGGGTTCTAACCTGTTGCGT (site AGGGATCCTAC)”, the “recombinant barcode read abundance (log10)” value is 0.758. In the case of “ATGGATCCTTGGGTTCTAACCTGTTGCGT (site ATGGATCCTAC)”, the “recombinant barcode read abundance (log10)” value was determined as 2.77. Turning to “ATGGCCTCTTGGGTTCTAACCTGTTGCCT (site ATGACCTCTAG)”, the “recombinant barcode read abundance (log10)” value came out at 0.822. Consider “ATGGCCTCTTGGGTTCTAACCTGTTGCCT (site ATGCCCTCTAG)”, for which the “recombinant barcode read abundance (log10)” value was determined as 0.0852.

Take “ATGGCCTCTTGGGTTCTAACCTGTTGCCT (site ATGGCCTCTAG)”: the “recombinant barcode read abundance (log10)” value is 2.2. Take “ATGGCCTCTTGGGTTCTAACCTGTTGCCT (site ATGTCCTCTAG)”: the “recombinant barcode read abundance (log10)” value was found to be 0.0804. The result for “ATGGGCCCTTGGGTTCTAACCTGTTGCTA (site ATGGGCCCTAA)” reads 0.362; that for “ATGGGCCCTTGGGTTCTAACCTGTTGCTA (site ATGGGCCCTCA)”, 1.17. With “ATGGGCCCTTGGGTTCTAACCTGTTGCTA (site ATGGGCCCTGA)”, the “recombinant barcode read abundance (log10)” value is 0.288.

For “ATGGGCCCTTGGGTTCTAACCTGTTGCTA (site ATGGGCCCTTA)”, the “recombinant barcode read abundance (log10)” value came out at 2.17. For “ATGGGCCCTTGGGTTCTAACCTGTTGCTT (site ATGGGCCCTAA)”, the “recombinant barcode read abundance (log10)” value was 2.01.

With “ATGGGCCCTTGGGTTCTAACCTGTTGCTT (site ATGGGCCCTCA)”, the “recombinant barcode read abundance (log10)” value was found to be 0.00714. For “ATGGGCCCTTGGGTTCTAACCTGTTGCTT (site ATGGGCCCTGA)”, the “recombinant barcode read abundance (log10)” value was 0.0928. To “ATGGGCCCTTGGGTTCTAACCTGTTGCTT (site ATGGGCCCTTA)” belongs 0.243; to “ATGGTACCTTGGGTTCTAACCTGTTGCTA (site ATGGTACCTTA)”, 2.34; to “ATGGTACCTTGGGTTCTAACCTGTTGCTA (site GATAACGCTAG)”, 0.247. As for “ATGGTGACTTGGGTTCTAACCTGTTGCCT (site ATGGTGACTAG)”, the “recombinant barcode read abundance (log10)” value was determined as 1.21. The result for “ATGGTGACTTGGGTTCTAACCTGTTGCCT (site ATGGTGCCTAG)” reads 0.296. Regarding “ATGGTGACTTGGGTTCTAACCTGTTGCCT (site ATGGTGGCTAG)”, the “recombinant barcode read abundance (log10)” value turned out to be 0.0522. On to “ATGGTGACTTGGGTTCTAACCTGTTGCCT (site ATGGTGTCTAG)”, for which the “recombinant barcode read abundance (log10)” value amounted to 0.0769.

For the sequence “ATGTCCTCTTGGGTTCTAACCTGTTGCCA (site ATGTCCTCTTG)”, the “recombinant barcode read abundance (log10)” value turned out to be 1.02.

As to “ATGTCCTCTTGGGTTCTAACCTGTTGCCA (site GCTCGGGCTCC)”, the “recombinant barcode read abundance (log10)” value was found to be 0. With “ATGTCTACTTGGGTTCTAACCTGTTGCAG (site ATGTCTACTCT)”, the “recombinant barcode read abundance (log10)” value worked out at 0.673. With “ATGTCTACTTGGGTTCTAACCTGTTGCAG (site TGCCTATCTAA)”, the “recombinant barcode read abundance (log10)” value is 0.219. In the case of “ATGTGCACTTGGGTTCTAACCTGTTGCAG (site ATGTGCACTCT)”, the “recombinant barcode read abundance (log10)” value turned out to be 2.15. The result for “ATGTGCACTTGGGTTCTAACCTGTTGCAG (site CTGTGCACTCG)” reads 0.63.

In the case of “ATTAAATCTTGGGTTCTAACCTGTTGCCT (site ATTAAATCTAG)”, the “recombinant barcode read abundance (log10)” value stood at 0.0334. Consider “ATTAAATCTTGGGTTCTAACCTGTTGCCT (site ATTAATCCTAG)”, for which the “recombinant barcode read abundance (log10)” value was 0.485.

As to “ATTAACCCTTGGGTTCTAACCTGTTGCCT (site AATAACCCTAG)”, the “recombinant barcode read abundance (log10)” value amounted to 0.0681.

With “ATTAACCCTTGGGTTCTAACCTGTTGCCT (site ACTAACCCTAG)”, the “recombinant barcode read abundance (log10)” value came out at 0.0136. For the sequence “ATTAACCCTTGGGTTCTAACCTGTTGCCT (site AGTAACCCTAG)”, the “recombinant barcode read abundance (log10)” value worked out at 0.085. “ATTAACCCTTGGGTTCTAACCTGTTGCCT (site ATTAACCCTAG)”: the “recombinant barcode read abundance (log10)” value amounted to 1.21. On to “ATTAACTCTTGGGTTCTAACCTGTTGCCT (site ATTAACTCTAG)”, for which the “recombinant barcode read abundance (log10)” value was 0.944.

For “ATTAACTCTTGGGTTCTAACCTGTTGCCT (site CGAGTGACTCT)”, the “recombinant barcode read abundance (log10)” value was 0.0163. “ATTAAGACTTGGGTTCTAACCTGTTGCCT (site ATAAAGACTAG)”: the “recombinant barcode read abundance (log10)” value is 0.423. “ATTAAGACTTGGGTTCTAACCTGTTGCCT (site ATCAAGACTAG)”: the “recombinant barcode read abundance (log10)” value was 0.484. In the case of “ATTAAGACTTGGGTTCTAACCTGTTGCCT (site ATGAAGACTAG)”, the “recombinant barcode read abundance (log10)” value worked out at 0.11. As to “ATTAAGACTTGGGTTCTAACCTGTTGCCT (site ATTAAGACTAG)”, the “recombinant barcode read abundance (log10)” value was found to be 1.35. As to “ATTCGAGCTTGGGTTCTAACCTGTTGCGC (site ATTCGAGCTGC)”, the “recombinant barcode read abundance (log10)” value stood at 2.03.

Consider “ATTCGAGCTTGGGTTCTAACCTGTTGCGC (site ATTCGGGCTAC)”, for which the “recombinant barcode read abundance (log10)” value amounted to 0.0665. For the sequence “ATTCGAGCTTGGGTTCTAACCTGTTGCGG (site ATTCGAGCTCC)”, the “recombinant barcode read abundance (log10)” value came to 1.97. For “ATTCGAGCTTGGGTTCTAACCTGTTGCGG (site GTTCGAGCTCC)”, the “recombinant barcode read abundance (log10)” value amounted to 0.0863. For “ATTGAGACTTGGGTTCTAACCTGTTGCTT (site ATTGAGACTAA)”, the “recombinant barcode read abundance (log10)” value stood at 1.33. For “ATTGAGACTTGGGTTCTAACCTGTTGCTT (site GAGAGTCCTTG)”, the “recombinant barcode read abundance (log10)” value stood at 0.0837. As to “ATTGGGGCTTGGGTTCTAACCTGTTGCAG (site ATTAGGGCTCG)”, the “recombinant barcode read abundance (log10)” value worked out at 0.266. The result for “ATTGGGGCTTGGGTTCTAACCTGTTGCAG (site ATTGGGGCTCT)” reads 2.38. As for “ATTTAAGCTTGGGTTCTAACCTGTTGCCT (site ATTTAAGCTAG)”, the “recombinant barcode read abundance (log10)” value was 0.498.

In the case of “ATTTAAGCTTGGGTTCTAACCTGTTGCCT (site GAGCGGCCTCT)”, the “recombinant barcode read abundance (log10)” value was determined as 0.0137. Turning to “ATTTCTTCTTGGGTTCTAACCTGTTGCCT (site ATATCTTCTAG)”, the “recombinant barcode read abundance (log10)” value was 0.113. “ATTTCTTCTTGGGTTCTAACCTGTTGCCT (site ATTTCTTCTAG)”: the “recombinant barcode read abundance (log10)” value worked out at 0.0847. As for “ATTTGCACTTGGGTTCTAACCTGTTGCCT (site ATTTGAACTAG)”, the “recombinant barcode read abundance (log10)” value was determined as 0.14.

Consider “ATTTGCACTTGGGTTCTAACCTGTTGCCT (site ATTTGCACTAG)”, for which the “recombinant barcode read abundance (log10)” value was determined as 0.184. As to “ATTTGCACTTGGGTTCTAACCTGTTGCCT (site ATTTGGACTAG)”, the “recombinant barcode read abundance (log10)” value amounted to 0.0348.

As for “ATTTGCACTTGGGTTCTAACCTGTTGCCT (site ATTTGTACTAG)”, the “recombinant barcode read abundance (log10)” value was 0.0454. Consider “ATTTGTACTTGGGTTCTAACCTGTTGCCT (site ATTTGAACTAG)”, for which the “recombinant barcode read abundance (log10)” value was found to be 0.0288. Regarding “ATTTGTACTTGGGTTCTAACCTGTTGCCT (site ATTTGCACTAG)”, the “recombinant barcode read abundance (log10)” value was 0.0709.

For “ATTTGTACTTGGGTTCTAACCTGTTGCCT (site ATTTGGACTAG)”, the “recombinant barcode read abundance (log10)” value is 0. Take “ATTTGTACTTGGGTTCTAACCTGTTGCCT (site ATTTGTACTAG)”: the “recombinant barcode read abundance (log10)” value is 0.293. As for “CAAACACCTTGGGTTCTAACCTGTTGCCT (site CAAACAACTAG)”, the “recombinant barcode read abundance (log10)” value amounted to 0.0738. For “CAAACACCTTGGGTTCTAACCTGTTGCCT (site CAAACACCTAG)”, the “recombinant barcode read abundance (log10)” value is 1.46.

In the case of “CAAACACCTTGGGTTCTAACCTGTTGCCT (site CAAACAGCTAG)”, the “recombinant barcode read abundance (log10)” value is 0.682. For “CAAACACCTTGGGTTCTAACCTGTTGCCT (site CAAACATCTAG)”, the “recombinant barcode read abundance (log10)” value came to 0.287. For the sequence “CAAACTACTTGGGTTCTAACCTGTTGCAC (site CAAACTACTGT)”, the “recombinant barcode read abundance (log10)” value turned out to be 0.556. Turning to “CAAACTACTTGGGTTCTAACCTGTTGCAC (site CAAACTACTTA)”, the “recombinant barcode read abundance (log10)” value was determined as 0.0177. Turning to “CAAAGGGCTTGGGTTCTAACCTGTTGCAG (site CAAAAGGCTCT)”, the “recombinant barcode read abundance (log10)” value turned out to be 1.17.

As for “CAAAGGGCTTGGGTTCTAACCTGTTGCAG (site CAAAGGGCTCT)”, the “recombinant barcode read abundance (log10)” value came to 2.29. Consider “CAAAGTCCTTGGGTTCTAACCTGTTGCCT (site CAAAGTCCTAA)”, for which the “recombinant barcode read abundance (log10)” value is 0.013. Turning to “CAAAGTCCTTGGGTTCTAACCTGTTGCCT (site CAAAGTCCTAC)”, the “recombinant barcode read abundance (log10)” value worked out at 0.0449. In the case of “CAAAGTCCTTGGGTTCTAACCTGTTGCCT (site CAAAGTCCTAG)”, the “recombinant barcode read abundance (log10)” value came out at 1.12. As for “CAAAGTCCTTGGGTTCTAACCTGTTGCCT (site CAAAGTCCTAT)”, the “recombinant barcode read abundance (log10)” value turned out to be 0.0828. On to “CAAAGTCCTTGGGTTCTAACCTGTTGCTT (site CAAAGTCCTAA)”, for which the “recombinant barcode read abundance (log10)” value was determined as 0.437. Take “CAAAGTCCTTGGGTTCTAACCTGTTGCTT (site CAAAGTCCTAC)”: the “recombinant barcode read abundance (log10)” value is 0.174.

For the sequence “CAAAGTCCTTGGGTTCTAACCTGTTGCTT (site CAAAGTCCTAG)”, the “recombinant barcode read abundance (log10)” value stood at 0.152. For the sequence “CAAAGTCCTTGGGTTCTAACCTGTTGCTT (site CAAAGTCCTAT)”, the “recombinant barcode read abundance (log10)” value was 0.429.
